# Experimental data: patent US5541187A, “6-heterocycyclyl pyrazolo[3,4-d]pyrimidin-4-ones and compositions and method of use thereof” (Sterling Winthrop Inc., priority 1993, dated 1996)
# Values joined by “and” are separate entries in the source; they are usually repeats but may differ in a detail not shown here. Identical values can stand only once.
# Tested on: cGMP-PDE I
# Experiment: cGMP-PDE I inhibitory activity (cyclic nucleotide hydrolysis, isolated PDE isozyme)
# Format: biochemical, various animal species and man
# Conditions: for IC50: values marked * are from two separate experimental runs
# Description: Multiple isozymic forms of cyclic nucleotide phosphodiesterase (PDE) have been identified in mammalian cells. […] Elevation of intracellular cGMP in vascular smooth muscle triggers a cascade of events that leads to a reduction in muscle tone while elevations in renal tubule cell cGMP stimulates natriuresis and diuresis. Vascular smooth muscle and renal cells contain a phosphodiesterase isozyme that has a low Km (1 μM) for the hydrolysis of cGMP. This isozyme has been referred to as the cGMP-PDE or cGMP-PDE I since it elutes from an anion-exchange sepharose resin in the first peak of PDE activity at a sodium acetate concentration between 150-200 mM. Thus inhibition of the cGMP-PDE isozyme is a viable subcellular mechanism by which increases in cGMP can produce a reduction in total peripheral resistance and a stimulation of natriuresis and diuresis. The development of cGMP-PDE inhibitors represents an approach for the discovery of agents useful for treating heart failure and hypertension. For example, compounds having high inhibitory potency for the cGMP-PDE are expected to lower blood pressure and induce natriuresis and diuresis.
# The cGMP-PDE and other PDE isozymes were isolated from cardiovascular tissues (heart and aorta) of various animal species and man by anion-exchange and affinity chromatography as described by Silver et al., Sec. Messeng. Phos. 13:13-25, 1991; PDE activity, in the presence and absence of test compounds was determined essentially as described by Thompson et al., Adv. Cyclic Nucleotide Res. 10:69-92. To determine the potency and selectivity of compounds as PDE inhibitors, compounds are screened for their effect on cyclic nucleotide hydrolysis at 10 μM. If ≥50% inhibition of PDE activity is observed, an IC50 value (concentration of compound causing 50% reduction in PDE activity) and corresponding 95% confidence intervals are generated. The IC50 values are calculated from concentration-response curves as described by Tallarida and Murray, Manual of Pharmacologic Calculations with Computer Programs, Procedure 8, Graded Dose-response, pp. 14-19, Springer-Verlag, N.Y., 1981.
SMILES,Percent Inhibition cGMP-PDE I (0.1 μM) [%],Percent Inhibition cGMP-PDE I (1 μM) [%],Percent Inhibition cGMP-PDE I (10 μM) [%],IC50
"Cc1[nH]n(C2CCCC2C)c2nc(-c3ccncc3)nc(=O)c1-2 (stereo not shown) [Example 1e, 1-(2-Methylcyclopentyl)-3-methyl-6-(4-pyridyl)pyrazolo [3,4-d]pyrimidin-4-one]",23,59,–,–
"CCc1[nH]n(C2CCCC2)c2nc(-c3cccc(C)n3)nc(=O)c1-2 [Example 2f, 1-cyclopentyl-3-ethyl-6-(6-methyl-2-pyridyl) -pyrazolo-[3,4-d]pyrimidin-4-one]",–,7,53,–
"Cc1nn(C2CCCCC2)c2nc(-c3ccncc3)[nH]c(=O)c12 [Example 3e, 1-Cyclohexyl-3-methyl-6-(4-pyridyl)-pyrazolo[3,4-d]pyimidin-4-one]",–,–,–,460 nM and 560 nM
"CC(C)(C)n1[nH]c(CC2CCCCC2)c2c(=O)nc(-c3ccncc3)nc1-2 [Example 5e, 1-tert-Butyl-3-(cyclohexylmethyl)-6-(4-pyridyl)-pyrazolo[3,4-d]pyrimidin-4-one]",–,–,–,260 nM
"CC(C)(C)n1[nH]c(Nc2ccccc2)c2c(=O)nc(-c3ccncc3)nc1-2 [Example 6e, 1-tert-Butyl-3-phenylamino-6-(4-pyridyl)-pyrazolo[3,4-d]-pyrimidin-4-one]",–,–,–,620 nM
"CCc1[nH]n(C2CCCC2)c2nc(-c3ccnc4ccccc34)nc(=O)c1-2 [Example 7c, 1-Cyclopentyl-3-ethyl-6-(4-quinolinyl)-pyrazolo[3,4-d]pyrimidin-4-one]",–,–,–,190 nM
"CCc1[nH]n(C2CCCC2)c2nc(C3CCNC4CCCCC43)nc(=O)c1-2 (stereo not shown) [Example 8, 1-Cyclopentyl-3-ethyl-6-(perhydro-4-quinolinyl)-pyrazolo[3,4-d]pyrimidin-4-one]",–,31,67,–
"CCc1[nH]n(C2CCCC2)c2nc(C3CCNc4ccccc43)nc(=O)c1-2 (stereo not shown) [Example 9, 1-Cyclopentyl-3-ethyl-6-(1,2,3,4-tetrahydro-4-quinolinyl)-pyrazolo[3,4-d]pyrimidin-4-one]",–,–,–,280 nM
"CCc1nn(C2CCCC2)c2nc(C3CCN(C)c4ccccc43)[nH]c(=O)c12 (stereo not shown) [Example 10b, 1-cyclopentyl-3-ethyl-6-(1,2,3,4-tetrahydro-4-N-methyl-quinolinyl)-pyrazolo-[3,4-d]pyrimidin-4-one]",24,62,–,–
"Cc1[nH]n(C2CCCC2)c2nc(-c3cccc4cccnc34)nc(=O)c1-2 [Example 12c, 1-Cyclopentyl-3-methyl-6-(8-quinolinyl)-pyrazolo-[3,4-d]pyrimidin-4-one]",–,–,–,690 nM
"O=c1nc(-c2ccncc2)nc2n(C3CCCC3)[nH]c(Cc3ccccc3)c1-2 [Example 15e, 1-Cyclopentyl-3-phenylmethyl-6-(4-pyridyl)-pyrazolo[3,4-d]pyrimidin-4-one]",–,38,43,–
"CCc1[nH]n(C2CCCC2)c2nc(-c3ccc4nccn4c3)nc(=O)c1-2 [Example 16c, 1-Cyclopentyl-3-ethyl-6-(6-imidazo[1,2-a]pyridinyl)pyrazolo[3,4-d]pyrimidin-4-one]",35,69,–,780 nM
Cc1nn(C2CCCC2O)c2nc(-c3ccncc3)[nH]c(=O)c12 (stereo not shown) [Example 17e],–,–,–,2300 nM
"Cc1nn(C2CCS(=O)(=O)C2)c2nc(-c3ccncc3)[nH]c(=O)c12 (stereo not shown) [Example 18c, 1-(3-Tetrahydrothienyl-1,1-dioxide)-3-methyl-6-(4-pyridyl)pyrazolo[3,4-d]pyrimidin-4-one methanesulfonate]",–,0,45,–
"CSc1[nH]n(C2CCCC2)c2nc(-c3ccncc3)nc(=O)c1-2 [Example 19c, 1-Cyclopentyl-3-methylthio-6-(4-pyridyl)pyrazolo[3,4-d]pyrimidin-4-one]",–,32,74,–
"CN(C)c1[nH]n(C2CCCC2)c2nc(-c3ccncc3)nc(=O)c1-2 [Example 20c, 1-Cyclopentyl-3-dimethylamino-6-(4-pyridyl) pyrazolo[3,4-d]pyrimidin-4-one]",–,36,70,–
O=c1[nH]c(-c2ccncc2)nc2c1cnn2C1CCCC1 [Example 71],–,–,–,3700 nM
O=c1[nH]c(-c2ccncc2)nc2c1c(Cl)nn2C1CCCC1 [Example 72],–,–,–,1150 nM
O=c1[nH]c(-c2ccncc2)nc2c1c(Br)nn2C1CCCC1 [Example 73],–,–,–,1800 nM
O=c1[nH]c(-c2ccncc2)nc2c1c([N+](=O)[O-])nn2C1CCCC1 [Example 74],–,0,32,–
Cc1n[nH]c2nc(-c3ccncc3)[nH]c(=O)c12 [Example 76],–,0,24,–
Cc1nn(Cc2ccccc2)c2nc(-c3ccncc3)[nH]c(=O)c12 [Example 77],–,13,80,–

SMILES,Percent Inhibition cGMP-PDE I (0.1 μM) [%],Percent Inhibition cGMP-PDE I (1 μM) [%],Percent Inhibition cGMP-PDE I (10 μM) [%],IC50
Cc1nn(CCCCCCCCC(=O)O)c2nc(-c3ccncc3)[nH]c(=O)c12 [Example 78],–,54,–,–
Cc1nn(CCCCCCC(=O)O)c2nc(-c3ccncc3)[nH]c(=O)c12 [Example 79],–,–,–,4700 nM
Cc1nn(CCCCCC(=O)O)c2nc(-c3ccncc3)[nH]c(=O)c12 [Example 80],–,–,–,2700 nM
Cc1nn(Cc2cccc(Cl)c2)c2nc(-c3ccncc3)[nH]c(=O)c12 [Example 81],–,–,–,200 nM
Cc1nn(Cc2ccccc2Cl)c2nc(-c3ccncc3)[nH]c(=O)c12 [Example 82],–,–,–,550 nM
Cc1nn(CCCCCCCC(=O)O)c2nc(-c3ccncc3)[nH]c(=O)c12 [Example 84],–,–,–,610 nM
Cc1nn(Cc2ccc(C#N)cc2)c2nc(-c3ccncc3)[nH]c(=O)c12 [Example 85],–,–,42,–
Cc1nn(Cc2cccc(C#N)c2)c2nc(-c3ccncc3)[nH]c(=O)c12 [Example 86],–,–,41,–
Cc1ccccc1Cn1nc(C)c2c(=O)[nH]c(-c3ccncc3)nc21 [Example 87],–,–,–,2700 nM and 3600 nM
CCCCCCCCn1nc(C)c2c(=O)[nH]c(-c3ccncc3)nc21 [Example 88],–,32,–,–
Cc1nn(CC2CCCC2)c2nc(-c3ccncc3)[nH]c(=O)c12 [Example 89],–,17,77,–
Cc1nn(C2CC3CCC2C3)c2nc(-c3ccncc3)[nH]c(=O)c12 (stereo not shown) [Example 91],–,–,–,850 nM
CC(C)(C)n1ncc2c(=O)[nH]c(-c3ccncc3)nc21 [Example 92],–,–,–,680 nM
CCc1nn(C(C)(C)C)c2nc(-c3ccncc3)[nH]c(=O)c12 [Example 94],–,–,–,480 nM
CC(C)(C)c1nn(C2CCCC2)c2nc(-c3ccncc3)[nH]c(=O)c12 [Example 95],–,9,32,–
O=c1[nH]c(-c2ccncc2)nc2c1c(C(F)(F)F)nn2C1CCCC1 [Example 96],–,–,–,670 nM
"CCN(CC)CCCn1nc(C)c2c(=O)[nH]c(-c3ccncc3)nc21 [Example 99, 1-(3-Diethylaminopropyl)-3-methyl-6-(4-pyridyl)pyrazolo[3,4-d]pyrimidin-4-one. 1/2 hydrate]",–,0,12,–
"N#Cc1[nH]n(C2CCCC2)c2nc(-c3ccncc3)nc(=O)c1-2 [Example 100, 1-Cyclopentyl-3-cyano-6-(4-pyridyl)-pyrazolo-[3,4-d]pyrimidin-4-one]",–,9,35,–
"Cc1nn(C2CCOC2)c2nc(-c3ccncc3)[nH]c(=O)c12 (stereo not shown) [Example 101, 1-(3-Tetrahydrofuranyl)-3-methyl-6-(4-pyridyl)-pyrazolo-[3,4-d]pyrimidin-4-one-1/4 hydrate]",–,–,–,1780 nM
"Cc1[nH]n(C2CCC2)c2nc(-c3ccncc3)nc(=O)c1-2 [Example 102, 1-Cyclobutyl-3-methyl-6-(4-pyridyl)-pyrazolo-[3,4-d]pyrimidin-4-one]",–,–,–,1900 nM
"Cc1[nH]n(C)c2nc(-c3ccncc3)nc(=O)c1-2 [Example 103, 1,3-Dimethyl-6-(4-pyridyl)-pyrazolo-[3,4-d]pyrimidin-4-one]",–,0,19,–
